One test relates to HSV-1. The test can be described thus: HSV Antiviral (ELISA) Assay in Vero cells. In kind it is cell-based, herpes simplex virus type 1. The settings on record: HSV-1, Vero cells; for IC50: Human alphaherpesvirus 1, read-out: IC50 (ug/ml) HSV. How it is done: Vero cells (ATCC #CCL-81) are plated on 96-well tissue culture plates at 3.5×10^4 cells per 100 μl tissue culture DMEM (Dulbeccos modified Eagle media) supplemented with 2% fetal bovine serum (FBS) in each well. After overnight incubation @ 37° C. (in 5% CO2) and 30 minutes prior to infection with HSV-1 (multiplicity of infection equal to 0.006), cells are either untreated, or treated with test compound (multiple concentrations) or reference standard drug control. After approximately 24 hours post-infection incubation @ 37° C. (in 5% CO2), cells are fixed for ELISA assay. The primary antibody is murine anti-HSV glycoprotein D monoclonal primary antibody and the secondary antibody is goat anti-mouse IgG linked to β-galactosidase. Thus the extent of viral replication is determined by assessing β-galactosidase activity by quantifying the generation of the 4-methyl umbelliferone fluorescent cleavage product after addition of the methyl umbelliferyl-β-D-galactoside (Sigma #M1633) substrate on a microfluorimeter (365 nm for excitation and 450 nm for emission). Antiviral activity (IC50) of the test compound is determined by comparing the flourescence obtained in absence of compound to that obtained in the presence of compound.

A further test relates to VZV strain Ellen. As to the kind of experiment: VZV Antiviral (ELISA) Assay in human foreskin fibroblast cells. The conditions noted are these: for IC50 / inhibition at 10 µg/mL: Human alphaherpesvirus 3, Fibroblast; for IC50: read-out: IC50 (ug/ml) VZV; for inhibition at 10 µg/mL: read-out: % inhibition 10 ug/ml VZV, 10 ug/ml. In kind it is cell-based, varicella-zoster virus. How it is done: For the generation of stock VZV to be used in the assay, VZV strain Ellen (ATCC #VR-1367) is used to infect human foreskin fibroblast (HFF) cells at low multiplicity (less than 0.1) and incubated overnight at 37° C. in 5% CO2. After the overnight incubation, the mixture of uninfected and VZV-infected HFF infected cells are then harvested and added to each well of 96-well plates (3.5×10^4 cells in 100 μl DMEM supplemented with 2% FBS) which contain test compound or the reference standard drug control (in 100 μl DMEM supplemented with 2% FBS per well). These cells are incubated for three days at 37° C. in 5% CO2, then fixed for ELISA assay. The primary antibody is murine anti-VZV glycoprotein II monoclonal antibody (Applied Biosystems, Inc. #13-145-100) and the secondary antibody is goat anti-mouse IgG linked to β-galactosidase. Thus the extent of viral replication is determined by assessing β-galactosidase activity by quantifying the generation of the 4-methyl umbelliferone fluorescent cleavage product after addition of the methyl umbelliferyl-β-D-galactoside (Sigma #M1633) substrate on a microfluorimeter (365 nm for excitation and 450 nm for emission). Antiviral activity (IC50) of the test compound is determined by comparing the flourescence obtained in absence of compound to that obtained in the presence of compound.
(ELISA stands for enzyme-linked immunosorbent assay.)

The text below walks through data of patent US6462055B2, “Alpha-methylbenzyl-containing thiourea inhibitors of herpes viruses containing a phenylenediamine group” (Wyeth, priority 1998, dated 2002).

In brackets after ≈: the same amount, converted by molar mass.

As to `CC(NC(=S)Nc1ccc(NC(=O)c2ccccc2F)cc1)c1ccc(S(=O)(=O)N(C)C)cc1` (stereo not shown) [Example 1008, N-(4-{3-[1-(4-Dimethylsulfamoyl-phenyl)-ethyl]-thioureido}-phenyl)-2-fluoro-benzamide], the IC50 with HSV-1 and with VZV strain Ellen was above 10 µg/mL each time. As for `C[C@@H](NC(=S)Nc1ccc(NC(=O)c2ccccc2F)cc1)c1ccc(Br)cc1` [Example 1005, N-(4-{3-[(1R)-1-(4-Bromo-phenyl)-ethyl]-thioureido}-phenyl)-2-fluoro-benzamide], the figures for the IC50 with HSV-1 and with VZV strain Ellen were 2.9 µg/mL (≈ 6.14 µM) and 4.3 µg/mL (≈ 9.1 µM), respectively. Regarding `CCC(C)Cc1cc(NC(=S)Nc2ccc(NC(=O)c3ccccc3F)cc2)cc(C(F)(F)F)c1` (stereo not shown) [Example 577], in the test on VZV strain Ellen, the “IC50 (ug/ml) VZV” value was above 7.5 µg/mL. For the compound `CC(NC(=S)Nc1ccc(NC(=O)c2cc3ccccc3cn2)cc1)c1ccc(F)cc1` (stereo not shown) [Example 984, Isoquinoline-3-carboxylic acid (4-{3-[1-(4-fluoro-phenyl)ethyl]-thioureido}-phenyl)-amide], the IC50 with HSV-1 was found to be 7.2 µg/mL (≈ 16.2 µM); in the test on VZV strain Ellen, 0.08 µg/mL (≈ 0.18 µM). Take `COc1cccc(C(=O)Nc2ccc(NC(=S)Nc3ccc(OC)c(Cl)c3)cc2)c1` [Example 819, N-{4-[3-(3-Chloro-4-methoxy-phenyl)-thioureido]-phenyl}-3-methoxy-benzamide]: the IC50 with HSV-1 was found to be 6 µg/mL (≈ 13.6 µM). Also, in the test with VZV strain Ellen, the inhibition at 10 µg/mL stood at 93% and the IC50 was found to be 2.5 µg/mL (≈ 5.66 µM). As for `CC(C)(NC(=S)Nc1ccc(NC(=O)c2ccccc2F)cc1)c1ccccc1` [Example 727], the “IC50 (ug/ml) HSV” value in the test with HSV-1 is above 10 µg/mL. `CC(NC(=S)Nc1ccc(NC(=O)c2cc3ccccc3o2)cc1)c1ccc(C#N)cc1` (stereo not shown) [Example 983, Benzofuran-2-carboxylic acid (4-{3-[1-(4-cyano-phenyl)-ethyl]-thioureido}-phenyl)-amide]: the IC50 with HSV-1 is above 10 µg/mL; in the test on VZV strain Ellen, 0.6 µg/mL (≈ 1.36 µM). `COc1ccc(NC(=S)Nc2ccc(NC(=O)c3cccc(F)c3)cc2)cc1Cl` [Example 822, N-{4-[3-(3-Chloro-4-methoxy-phenyl)-thioureido]-phenyl}-3-fluoro-benzamide]: in the test on VZV strain Ellen, the inhibition at 10 µg/mL is 0% and the IC50 is above 10 µg/mL. Take `CC(=O)Nc1ccc(NC(=S)Nc2ccc(NC(=O)c3ccccc3F)cc2)cc1Cl` [Example 397]: the “IC50 (ug/ml) HSV” value in the test on HSV-1 was 5 µg/mL (≈ 10.9 µM). In the test with VZV strain Ellen, the “IC50 (ug/ml) VZV” value was above 10 µg/mL and the “% inhibition 10 ug/ml VZV” value came to 35%. Take `CC(NC(=S)Nc1ccc(NC(=O)c2ccnc3ccccc23)cc1)c1ccc(F)cc1` (stereo not shown) [Example 989, Quinoline-4-carboxylic acid (4-{3-[1-(4-fluoro-phenyl)-ethyl]-thioureido}-phenyl)-amide]: the IC50 in the test with VZV strain Ellen was determined as 3 µg/mL (≈ 6.75 µM). On to `C[C@H](NC(=S)Nc1ccc(NC(=O)c2nccc3ccccc23)cc1)c1ccc(Cl)cc1` [Example 1109], for which, in the test on VZV strain Ellen, the IC50 stood at 0.03 µg/mL (≈ 0.0651 µM).

As to `COc1cc(OC)c(NC(=S)Nc2ccc(NC(=O)c3ccccc3-c3ccccc3)cc2)cc1Cl` [Example 182], in the test on VZV strain Ellen, the “IC50 (ug/ml) VZV” value was above 10 µg/mL and the “% inhibition 10 ug/ml VZV” value stood at 32%. For `CC(C)(C)c1cccc(NC(=S)Nc2ccc(NC(=O)c3ccccc3F)cc2)c1` [Example 869, N-{4-[3-(3-tert-Butyl-phenyl)-thioureido]-phenyl}-2-fluoro-benzamide], in the test on VZV strain Ellen, the inhibition at 10 µg/mL was 77% and the IC50 was 3 µg/mL (≈ 7.12 µM). With `O=C(Nc1ccc(NC(=S)Nc2ccc(I)c(Cl)c2)cc1)c1ccccc1F` [Example 916, N-{4-[3-(3-Chloro-4-iodo-phenyl)-thioureido]-phenyl}-2-fluoro-benzamide], in the test with VZV strain Ellen, the inhibition at 10 µg/mL worked out at 30% and the IC50 was above 10 µg/mL.

For the compound `CC(NC(=S)Nc1ccc(NC(=O)c2ccccc2I)cc1)c1ccc(F)cc1` (stereo not shown) [Example 812], the IC50 with VZV strain Ellen is 3.4 µg/mL (≈ 6.55 µM).

As for `O=C(Nc1ccc(NC(=S)NCCOc2ccccc2)cc1)c1ccccc1F` [Example 625], in the test on VZV strain Ellen, the IC50 turned out to be 4 µg/mL (≈ 9.77 µM).

`O=C(Nc1ccc(NC(=S)Nc2ccc(C(F)(F)F)c(Cl)c2)cc1)c1ccccc1F` [Example 911, N-{4-[3-(3-Chloro-4-trifluoromethyl-phenyl)-thioureido]-phenyl}-2-fluoro-benzamide]: in the test on VZV strain Ellen, the inhibition at 10 µg/mL is 38% and the IC50 is above 10 µg/mL. For `O=C(Nc1ccc(NC(=S)NCc2cc(F)cc(C(F)(F)F)c2)cc1)c1ccccc1F` [Example 586], the IC50 in the test on VZV strain Ellen was above 10 µg/mL. With `COc1ccc(NC(=S)Nc2ccc(NC(=O)c3ccccc3OC)cc2)cc1Cl` [Example 818, N-{4-[3-(3-Chloro-4-methoxy-phenyl)-thioureido]-phenyl}-2-methoxy-benzamide], in the test on VZV strain Ellen, the inhibition at 10 µg/mL came to 32% and the IC50 was above 10 µg/mL. On to `CC(NC(=S)Nc1ccc(NC(=O)c2ccccc2F)cc1)c1ccc(C(F)(F)F)cc1F` (stereo not shown) [Example 1106], for which the IC50 in the test with VZV strain Ellen was above 7.5 µg/mL. For the compound `O=C(Nc1ccc(NC(=S)NCc2cc(F)cc(F)c2)cc1)c1ccccc1F` [Example 580], the “IC50 (ug/ml) VZV” value with VZV strain Ellen is above 10 µg/mL. Take `COc1ccc(NC(=S)Nc2ccc(NC(=O)c3ccc(F)cc3)cc2)cc1Cl` [Example 823, N-{4-[3-(3-Chloro-4-methoxy-phenyl)-thioureido]-phenyl}-4-fluoro-benzamide]: in the test with VZV strain Ellen, the inhibition at 10 µg/mL came to 7% and the IC50 is above 10 µg/mL. Take `O=C(Nc1ccc(NC(=S)NCc2ccc(N3CCCCC3)c(C(F)(F)F)c2)cc1)c1ccccc1F` [Example 616]: in the test on VZV strain Ellen, the “IC50 (ug/ml) VZV” value is above 10 µg/mL. For `Cc1cc(C)cc(CNC(=S)Nc2ccc(NC(=O)c3ccccc3F)cc2)c1` [Example 725], the “IC50 (ug/ml) HSV” value in the test with HSV-1 is above 10 µg/mL.

`O=C(Nc1ccc(NC(=S)NCCc2ccccc2F)cc1)c1ccccc1F` [Example 721]: the “IC50 (ug/ml) HSV” value in the test with HSV-1 was above 10 µg/mL. Take `CC(NC(=S)Nc1ccc(NC(=O)c2nccc3ccccc23)cc1)c1ccc(F)cc1` (stereo not shown) [Example 1110]: in the test on VZV strain Ellen, the “IC50 (ug/ml) VZV” value came to 0.05 µg/mL (≈ 0.112 µM). For the compound `CC(C)Cc1cc(NC(=S)Nc2ccc(NC(=O)c3ccccc3F)cc2)cc(C(F)(F)F)c1` [Example 578], in the test with VZV strain Ellen, the “IC50 (ug/ml) VZV” value is above 10 µg/mL. As to `O=C(Nc1ccc(NC(=S)NCc2ccc(F)c(C(F)(F)F)c2)cc1)c1ccccc1F` [Example 623], in the test on VZV strain Ellen, the IC50 is above 10 µg/mL. For the compound `CC(NC(=S)Nc1ccc(NC(=O)c2ccccc2C#N)cc1)c1ccc(F)cc1` (stereo not shown) [Example 993, 2-Cyano-N-(4-{3-[1-(4-fluoro-phenyl)-ethyl]-thioureido}-phenyl)-benzamide], the IC50 with VZV strain Ellen worked out at 2.7 µg/mL (≈ 6.45 µM).

For the compound `COc1ccc(NC(=S)Nc2ccc(NC(=O)c3ccccc3F)cc2)cc1I` [Example 810], the IC50 in the test on VZV strain Ellen is above 7.5 µg/mL. For `CC(C)(C)c1ccc(CNC(=S)Nc2ccc(NC(=O)c3ccccc3F)cc2)cc1` [Example 724], the “IC50 (ug/ml) HSV” value in the test on HSV-1 is above 10 µg/mL. As to `O=C(Nc1ccc(NC(=S)NCc2cc(Cl)cc(Cl)c2)cc1)c1ccccc1F` [Example 583], the “IC50 (ug/ml) VZV” value in the test with VZV strain Ellen is 10 µg/mL (≈ 22.3 µM).

As for `COc1cc(OC)c(NC(=S)Nc2ccc(NC(=O)c3cccc(NS(C)(=O)=O)c3)cc2)cc1Cl` [Example 137], in the test on VZV strain Ellen, the “IC50 (ug/ml) VZV” value is above 15 µg/mL and the “% inhibition 10 ug/ml VZV” value amounted to 72%. For the compound `CSc1ccc(NC(=S)Nc2ccc(NC(=O)c3c(F)cccc3F)cc2)cc1Cl` [Example 848, N-{4-[3-(3-Chloro-4-methylsulfanyl-phenyl)-thioureido]-phenyl}-2,6-difluoro-benzamide], in the test with VZV strain Ellen, the inhibition at 10 µg/mL amounted to 101% and the IC50 was determined as 1.3 µg/mL (≈ 2.8 µM). With `CC(NC(=S)Nc1ccc(NC(=O)c2ccc3ncccc3c2)cc1)c1ccc(F)cc1` (stereo not shown) [Example 990, Quinoline-6-carboxylic acid (4-{3-[1-(4-fluoro-phenyl)-ethyl]-thioureido}-phenyl)-amide], in the test on VZV strain Ellen, the IC50 came out at 3.5 µg/mL (≈ 7.87 µM). `COc1cc(OC)c(NC(=S)Nc2ccc(NC(=O)c3ccccc3C)cc2)cc1Br` [Example 829, N-{4-[3-(5-Bromo-2,4-dimethoxy-phenyl)-thioureido]-phenyl}-2-methyl-benzamide]: in the test on VZV strain Ellen, the inhibition at 10 µg/mL was found to be 50% and the IC50 is above 15 µg/mL.

Turning to `COc1cc(OCC(F)(F)F)ccc1NC(=S)Nc1ccc(NC(=O)c2ccccc2F)cc1` [Example 1006, 2-Fluoro-N-(4-{3-[2-methoxy-4-(2,2,2-trifluoro-ethoxy)-phenyl]-thioureido}-phenyl)-benzamide], in the test on VZV strain Ellen, the IC50 turned out to be 11 µg/mL (≈ 22.3 µM).
